In PubChem BioAssay (NCI):
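At the GI50, growth is halved. TGI is the concentration that stops growth completely.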

Assays:
Experiment in all cases: NCI tumour cell line growth inhibition, 384-well format
NCI-H226 lung = test system: NCI-H226 lung
NCI-H23 lung = test system: NCI-H23 lung
NCI-H322M lung = test system: NCI-H322M lung
NCI-H460 NSCLC = test system: NCI-H460 NSCLC
NCI-H522 lung = test system: NCI-H522 lung
NCI/ADR-RES ovarian = test system: NCI/ADR-RES ovarian
OVCAR-3 ovarian = test system: OVCAR-3 ovarian
OVCAR-4 ovarian = test system: OVCAR-4 ovarian
OVCAR-5 ovarian = test system: OVCAR-5 ovarian
PC-3 prostate = test system: PC-3 prostate
RPMI-8226 leukemia = test system: RPMI-8226 leukemia
RXF 393 renal = test system: RXF 393 renal
SF-268 CNS = test system: SF-268 CNS
SF-295 CNS = test system: SF-295 CNS
SF-539 CNS = test system: SF-539 CNS
SK-MEL-2 melanoma = test system: SK-MEL-2 melanoma
SK-MEL-28 melanoma = test system: SK-MEL-28 melanoma
SK-MEL-5 melanoma = test system: SK-MEL-5 melanoma
SK-OV-3 ovarian = test system: SK-OV-3 ovarian
SN12C renal = test system: SN12C renal
SNB-19 CNS = test system: SNB-19 CNS
SNB-75 CNS = test system: SNB-75 CNS
SR leukemia = test system: SR leukemia
SW-620 colon = test system: SW-620 colon
T-47D breast = test system: T-47D breast
TK-10 renal = test system: TK-10 renal
U251 glioblastoma = test system: U251 glioblastoma
UACC-257 melanoma = test system: UACC-257 melanoma
UACC-62 melanoma = test system: UACC-62 melanoma
UO-31 renal = test system: UO-31 renal

`NC(=O)Nc1cc(-c2cccc(F)c2)sc1C(=O)N[C@H]1CCCNC1` showed a TGI (NCI-H226 lung) of 2.3 µM, a GI50 (NCI-H23 lung) of 0.0665 µM and a TGI (NCI-H23 lung) of 0.267 µM. It also gave a GI50 (NCI-H322M lung) of 0.161 µM, a TGI (NCI-H322M lung) of 0.967 µM and a GI50 (NCI-H460 NSCLC) of 0.284 µM. It also gave a TGI (NCI-H460 NSCLC) of 2.06 µM, a GI50 (NCI-H522 lung) of 0.128 µM and a TGI (NCI-H522 lung) of 0.589 µM. For the same compound, the GI50 (NCI/ADR-RES ovarian) was 9.19 µM, the TGI (NCI/ADR-RES ovarian) was 23 µM and the GI50 (OVCAR-3 ovarian) was 0.103 µM. The TGI (OVCAR-3 ovarian) was 0.539 µM, the GI50 (OVCAR-4 ovarian) was 0.0696 µM and the TGI (OVCAR-4 ovarian) was 0.348 µM. For the same compound, the GI50 (OVCAR-5 ovarian) was 0.289 µM, the TGI (OVCAR-5 ovarian) was 1.62 µM and the GI50 (PC-3 prostate) was 0.259 µM. The TGI (PC-3 prostate) was 3.96 µM, the GI50 (RPMI-8226 leukemia) was 0.0349 µM and the TGI (RPMI-8226 leukemia) was 0.186 µM. The GI50 (RXF 393 renal) was 0.0121 µM, the TGI (RXF 393 renal) was 0.0432 µM and the GI50 (SF-268 CNS) was 0.132 µM. For the same compound, the TGI (SF-268 CNS) was 0.91 µM, the GI50 (SF-295 CNS) was 0.142 µM and the TGI (SF-295 CNS) was 0.461 µM. The GI50 (SF-539 CNS) was 0.0228 µM, the TGI (SF-539 CNS) was 0.104 µM and the GI50 (SK-MEL-2 melanoma) was 0.108 µM. For the same compound, the TGI (SK-MEL-2 melanoma) was 0.284 µM, the GI50 (SK-MEL-28 melanoma) was 1.5 µM and the TGI (SK-MEL-28 melanoma) was 8.6 µM. It also gave a GI50 (SK-MEL-5 melanoma) of 0.127 µM, a TGI (SK-MEL-5 melanoma) of 0.408 µM and a GI50 (SK-OV-3 ovarian) of 0.136 µM. The TGI (SK-OV-3 ovarian) was 0.38 µM, the GI50 (SN12C renal) was 0.13 µM and the TGI (SN12C renal) was 0.968 µM. For the same compound, the GI50 (SNB-19 CNS) was 0.377 µM, the TGI (SNB-19 CNS) was 2.29 µM and the GI50 (SNB-75 CNS) was 0.188 µM. The TGI (SNB-75 CNS) was 1.26 µM, the GI50 (SR leukemia) was 0.0365 µM and the TGI (SR leukemia) was 0.154 µM. It also gave a GI50 (SW-620 colon) of 0.595 µM, a TGI (SW-620 colon) of 2.12 µM and a GI50 (T-47D breast) of 12.7 µM. The TGI (T-47D breast) was 25.4 µM, the GI50 (TK-10 renal) was 0.109 µM and the TGI (TK-10 renal) was 0.357 µM. The GI50 (U251 glioblastoma) was 0.385 µM, the TGI (U251 glioblastoma) was 2.88 µM and the GI50 (UACC-257 melanoma) was 1.97 µM. The TGI (UACC-257 melanoma) was 11.1 µM, the GI50 (UACC-62 melanoma) was 0.319 µM and the TGI (UACC-62 melanoma) was 3.33 µM. For the same compound, the GI50 (UO-31 renal) was 0.362 µM and the TGI (UO-31 renal) was 1.51 µM.
